Assay results reported in US11725005B2, “Compositions and methods for inhibiting kinases” (Inhibikase Therapeutics, Inc., priority 2015, dated 2023).

What was measured:
[1] = test system: Cos 7 cells; experiment: Cell cytotoxicity CC50 and Therapeutic Index (CC50:EC50); conditions: drug titration between 2 nM and 20 μM
[2] = test system: PDGFRa

Cc1ccc(NC(=O)c2ccc(CN3CCN(C)CC3)cc2)cc1Nc1nccc(-c2cncc(-c3nccs3)c2)n1 [Compound 8270]
Cell cytotoxicity: no toxicity up to [1]: > 20 µM

Cc1ccnc(-c2cncc(-c3ccnc(Nc4cc(NC(=O)c5ccc(CN6CCN(C)CC6)cc5)ccc4C)n3)c2)c1 [Compound 830]
Percent inhibition PDGFRa [2]: 100
Cell cytotoxicity: no toxicity up to [1]: > 20 µM

Cc1cc(-c2cncc(-c3ccnc(Nc4cc(NC(=O)c5ccc(CN6CCN(C)CC6)cc5)ccc4C)n3)c2)sn1 [Compound 8190]
Percent inhibition PDGFRa [2]: 100
Cell cytotoxicity: no toxicity up to [1]: > 20 µM

Cc1csc(-c2cncc(-c3ccnc(Nc4cc(NC(=O)c5ccc(CN6CCN(C)CC6)cc5)ccc4C)n3)c2)n1 [Compound 8290]
Percent inhibition PDGFRa [2]: 100

Cc1ccc(NC(=O)c2ccc(CN3CCN(C)CC3)cc2)cc1Nc1nccc(-c2cncc(-c3nncs3)c2)n1 [Compound 8250]
Percent inhibition PDGFRa [2]: 100
Cell cytotoxicity: no toxicity up to [1]: > 20 µM

Cc1ccc(NC(=O)c2ccc(CN3CCN(C)CC3)cc2)cc1Nc1nccc(-c2cncc(-c3ccn(C)n3)c2)n1 [Compound 832]
Percent inhibition PDGFRa [2]: 100
Cell cytotoxicity: no toxicity up to [1]: > 20 µM

Cc1cnc(-c2cncc(-c3ccnc(Nc4cc(NC(=O)c5ccc(CN6CCN(C)CC6)cc5)ccc4C)n3)c2)s1 [Compound 8280]
Percent inhibition PDGFRa [2]: 100
Cell cytotoxicity: no toxicity up to [1]: > 20 µM

Cc1ccc(NC(=O)c2ccc(CN3CCN(C)CC3)cc2)cc1Nc1nccc(-c2cncc(-c3oncc3C)c2)n1 [Compound 809]
Cell cytotoxicity: no toxicity up to [1]: > 20 µM
